Experimental data from US7803600B2 (priority 2002, dated 2010).

What was measured:
[1] = system: K562A7 parental leukemia cells; experiment: Cell proliferation assay (MTS/PMS), K562A7 parental; type: cell-based; settings: Homo sapiens, 96 h, 4-day incubation, mean ± SE of at least two experiments, read-out: Sensitivity to cell killing, IC50
Procedure: (§1) The activity of the compound of formula (I) on P-glycoprotein- or Multidrug Resistant Protein-expressing tumour cell lines and respective parental cells, K562/C1,000+ and K562A7, COR-L23/R and COR-L23, was compared to that of a known substrate for P-glycoprotein/Multidrug Resistant Protein, adriamycin.
(§2) All samples tested were dissolved in DMSO and further dilutions (typically 1:1,000) were made in culture medium, with final DMSO concentrations never exceeding 0.1% (v/v) in cell proliferation assays. MTT [3-(4,5-dimethylthiazol-2-yl)-2,5-diphenyltetrazolium bromide], MTS [3-(4,5-dimethylthiazol-2-yl)-5-(3-carboxymethoxyphenyl)-2-(4-sulfophenyl)-2H-tetrazolium inner salt] and PMS [phenazine methosulfate] were dissolved in phosphate-buffered saline (PBS).
(§3) MTT and MTS are both tetrazolium salts widely used in cell proliferation and toxicity tests. Upon entry in a viable cell, these tetrazolium salts are (bio)reduced to an intensely colored formazan derivative. In case of MTT, the formed formazan is crystalline and needs to be dissolved before colorimetric quantification. MTS needs an intermediate electron acceptor (PMS) for its efficient reduction into a soluble formazan end product and is used for suspension cell lines. […]

K562/C1,000+ cells = experiment: Cell proliferation assay (MTS/PMS), K562/C1,000+ P-glycoprotein overexpressing; type: cell-based, human
Procedure: as §1, §2, §3

COR-L23/R cells = experiment: Cell proliferation assay (MTT), COR-L23/R Multidrug Resistant Protein overexpressing; type: cell-based, human
Procedure: as §1, §2, §3

COR-L23 cells = experiment: Cell proliferation assay (MTT), COR-L23 parental; type: cell-based; settings: Homo sapiens, 96 h, 4-day incubation, mean ± SE of at least two experiments, read-out: Sensitivity to cell killing, IC50
Procedure: as §1, §2, §3

In the case of `COc1cccc2c1C(=O)c1c(O)c3c(c(O)c1C2=O)C[C@@](O)(C(=O)CO)C[C@@H]3O[C@H]1C[C@H](N)[C@H](O)[C@H](C)O1` [Adriamycin, adriamycin], the IC50 [1] is reported as 26.8 ± 5.82 nM, the IC50 (K562/C1,000+ cells; Homo sapiens, 96 h, K562/C1,000+ P-glycoprotein overexpressing cells, 4-day incubation, mean ± SE of at least two experiments, read-out: Sensitivity to cell killing, IC50) is reported as 7830 nM and the “Resistance to cell killing as compared to parental cell line” value (K562/C1,000+ cells; K562/C1,000+ versus parental K562A7) is reported as 250 fold. For the same molecule, the “Resistance to cell killing as compared to parental cell line” value (COR-L23/R cells; COR-L23/R versus parental COR-L23) was 20 fold, the IC50 (COR-L23/R cells; Homo sapiens, 96 h, COR-L23/R Multidrug Resistant Protein overexpressing cells, 4-day incubation, mean ± SE of at least two experiments, read-out: Sensitivity to cell killing, IC50) was 676 ± 261 nM and the IC50 (COR-L23 cells) was 36.6 ± 19.1 nM.
